Results on 2 compounds are retold here after publication PMC8622623, “Histamine H3 Receptor Ligands—KSK-59 and KSK-73—Reduce Body Weight Gain in a Rat Model of Excessive Eating” (Pharmaceuticals, 2021).

Each structure is given as a SMILES string. Entries after “also recorded” stand apart in the source; their conditions may differ. Like-named read-outs stand apart in the source and are kept apart here.

Data set [1] deals with T1, H3 histamine receptor (Homo sapiens, UniProt Q9Y5N1).
T1 construct: host or cells: recombinant frozen ready-to-use cells
T1 sequence (Q9Y5N1 whole entry): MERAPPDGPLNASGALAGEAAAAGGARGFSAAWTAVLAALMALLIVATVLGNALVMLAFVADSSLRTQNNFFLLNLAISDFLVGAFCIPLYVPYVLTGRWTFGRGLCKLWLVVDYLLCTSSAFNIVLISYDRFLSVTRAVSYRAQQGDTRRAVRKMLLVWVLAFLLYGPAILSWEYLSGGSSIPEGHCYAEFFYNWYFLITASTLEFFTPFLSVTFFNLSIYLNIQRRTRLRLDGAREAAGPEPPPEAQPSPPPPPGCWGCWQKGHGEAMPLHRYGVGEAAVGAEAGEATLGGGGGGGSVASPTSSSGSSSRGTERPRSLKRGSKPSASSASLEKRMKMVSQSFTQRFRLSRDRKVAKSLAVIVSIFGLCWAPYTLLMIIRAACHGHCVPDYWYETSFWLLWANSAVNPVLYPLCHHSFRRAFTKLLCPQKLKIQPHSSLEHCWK
The data set is described as follows: Lance cAMP intrinsic activity assay (antagonist dose-response). Format: cell-based. The procedure: Intrinsic activity studies were performed by two methods, Aequoscreen and Lance cAMP assays according to the manufacturer of the ready to use cells with stable expression of the H3 histamine receptor (Perkin Elmer, Waltham, MA, USA).
The LANCE Ultra cAMP assay as a homogeneous time-resolved fluorescence resonance energy transfer (TR-FRET) immunoassay is designed to measure cAMP produced upon modulation of adenylyl cyclase activity by GPCRs. The assay is based on the competition between the europium (Eu) chelate-labeled cAMP tracer and sample cAMP for binding sites on cAMP-specific monoclonal antibodies labeled with the ULight dye.
For measurement cells (frozen, ready to use) were thawed and resuspended in 4 mL of HBSS 1X. Then cells suspension was placed in a 15 mL Falcon tube and centrifuged for 10 min at 275× g. Pellet was resuspended in 1.5 mL HBSS 1X to determine cells concentration, and after next centrifugation cells were resuspended in stimulation buffer at appropriate concentration. […] Cell stimulation was performed for 30 min at RT°, and the agonist and antagonists were added simultaneously.

Data set [2] in a line: in vitro. Particulars: PAMPA, pH 7.4. The protocol:
The reference compounds, well-permeable caffeine and low-permeable norfloxacin were obtained from Sigma-Aldrich (St. Louis, MO, USA). Used for this study, pre-coated PAMPA Plate System Gentest™ was provided by Corning (Tewksbury, MA, USA). The system consisted of 96-well receiver filter plate pre-coated with structured layers of phospholipids and a donor microplate. The assay was performed as described previously. […] After 5 h of incubation at RT° the UPLC-MS spectrometry (Waters ACQUITY™ TQD system with the TQ Detector, Waters, Milford, MA, USA) method was used to estimate the quantity of compounds that penetrated from donor to acceptor wells. The permeability coefficients (Pe, cm/s) were calculated using the formulas provided by Corning.
Background: PAMPA measures passive passage across an artificial lipid membrane.

Data set [3] has as its system non-obese rats fed palatable diet. The data set is described as follows: Model of excessive eating: body weight, calorie intake, fat pads. Format: in vivo, female Wistar rats. Particulars: for body weight gain: i.p. daily 28 days, vs palatable diet + vehicle; for caloric intake over the 28 days: i.p., KSK compounds 10 mg/kg b.w. or bupropion/naltrexone. The procedure:
Female Wistar rats were housed in pairs. […] The water was available ad libitum. Palatable control group (palatable diet + vehicle) received vehicle (1% Tween 80, i.p.), while palatable test groups (palatable diet + compound) were injected i.p. tested compounds at the dose of 10 or 1 mg/kg b.w./day suspended in 1% Tween 80 or the reference compound bupropion/naltrexon. The combination of bupropion at a dose of 20 mg/kg b.w./day and naltrexone at a dose of 1 mg/kg b.w./day was also suspended in 1% Tween 80 and administered i.p. Weight was evaluated daily. Calorie intake was evaluated ones per week. On the 31st day, 20 min after i.p. administration of heparin (5000 units/rat) and thiopental (70 mg/kg b.w.), animals were sacrificed and peritoneal fat pads were collected (Figure 11).
Palatable diet contained: 100 g peanuts—612 kcal; 100 mL condensed milk—131 kcal; 100 g milk chocolate—529 kcal; 100 g cheese—325 kcal. Standard diet contained 100 g feed—280 kcal.

Data set [4] has the same test system. The data set is described as follows: Intraperitoneal glucose tolerance test after 28 administrations. Particulars: for blood glucose levels at 30 or/and 60 min after glucose load: KSK compounds 10 mg/kg b.w. or bupropion/naltrexone, glucose 1 g/kg i.p., vs control fed palatable feed; for AUC of IPGTT: vs control rats fed high-calorie feed. The format is in vivo, female Wistar rats. The protocol:
The test was performed on the 29th day of the experiment. After twenty-eight administrations of the test compounds, food was discontinued for 20 h and then glucose tolerance was tested. Glucose (1 g/kg b.w.) was administrated i.p.. […] The area under the curve (AUC) was calculated using the trapezoidal rule.

Details of data set [5]: method as in PMID 31362197. As to conditions: PAMPA, published previously ref 17; cited from earlier work.
Setting [6] is: antagonist dose-response with reference agonist (R)-alpha-methylhistamine at EC80, read-out: Lance cAMP IC50.
Setting [7] is: text summary over both methods (Lance cAMP and Aequoscreen), read-out: IC50 value.
The mark [8] stands for this setting: palatable feed, KSK compounds 10 mg/kg b.w. or bupropion/naltrexone combination.
The mark [9] stands for this setting: palatable feed, vs palatable feed + vehicle.

By IC50 is commonly meant the midpoint of a concentration-inhibition curve. A word on the Papp: it is a coefficient for how fast a substance crosses the barrier. With `CC(=O)c1ccc(OCCCCCCN2CCN(c3ccncc3)CC2)cc1.O=C(O)C(=O)O` [KSK-59, 1-(4-((6-(4-(pyridin-4-yl)piperazin-1-yl)hexyl)oxy)phenyl)ethan-1-one oxalate], the concentration for half-maximal inhibition (IC50) was 3.79 ± 0.4 nM in data set [1] (setting [6]) and around 3 nM in data set [1] (setting [7]). For the same compound, the Papp at 5 h, 200 µM in data set [2] amounted to 4.35 ± 0.93 ×10⁻⁶ cm/s. For the same compound, the body weight gain result in data set [3] (palatable feed, 1 mg/kg b.w.) was “did not significantly affect weight gain”; in data set [3] (setting [8]) it was “gained less weight than the control group fed palatable diet”. Besides, the “caloric intake over the 28 days” value in data set [3] (setting [9]) is reported as “comparable to the amount consumed by the control rats”. Also, the “blood glucose levels at 30 or/and 60 min after glucose load” value in data set [4] is reported as “significantly lower”. Moreover, in data set [4], the “AUC of IPGTT” value is listed as “statistically significantly decreased”.
On to `CC(=O)c1ccc(OCCCCCCCCN2CCN(c3ccncc3)CC2)cc1.O=C(O)C(=O)O` [KSK-73, 1-(4-((8-(4-(pyridin-4-yl)piperazin-1-yl)octyl)oxy)phenyl)ethan-1-one oxalate], for which the half-maximal inhibitory concentration (IC50) in data set [1] (setting [6]) is 10.5 ± 1.5 nM; in data set [1] (setting [7]) it was 10 to 20 nM. In addition, the “fat pads in the peritoneal cavity” value in data set [3] (end of experiment, vs palatable feed + vehicle) is “Significantly fewer fat pads”. Further, the “body weight after the first administration” value in data set [3] (palatable feed, i.p. 10 mg/kg b.w., 10 mg/kg) is on record as “slowed down the rats’ body weight gain already after the first administration; also recorded: weight loss after the first administration”. The body weight gain result in data set [3] (palatable feed, 1 mg/kg b.w.) is listed as “caused significantly greater weight gain”; in data set [3] (setting [8]), “gained less weight than the control group fed palatable diet”. Further, the “caloric intake over the 28 days” value in data set [3] (setting [9]) is “significantly reduced animals caloric intake”. The “blood glucose levels at 30 or/and 60 min after glucose load” value in data set [4] is listed as “significantly lower”. Further, the “AUC of IPGTT” value in data set [4] is “statistically significantly decreased”. Moreover, the “Pe (permeability coefficient) ± SD” value in data set [5] was 6.22 ± 2.3 10^−6 cm/s.
